Test results from US10611740B2, “Aryl dihydro-2H-benzo[b][1,4]oxazine sulfonamide and related compounds for use as agonists of RORγ and the treatment of disease” (Lycera Corporation, priority 2015, dated 2020).

How the values were obtained:
RORγ-LBD = target: T1, RORγ-LBD (Homo sapiens, UniProt P51449); assay: RORγ-Ligand Binding Domain (LBD) TR-FRET Assay; assay type: biochemical;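 for TR-FRET Assay Max Response: 665/615 nm ratio relative to signal without ursolic acid or compound set at 100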
T1 construct: made in house; host or cells: SF9 cells (baculovirus)
T1 sequence (P51449 269-508 limits assumed): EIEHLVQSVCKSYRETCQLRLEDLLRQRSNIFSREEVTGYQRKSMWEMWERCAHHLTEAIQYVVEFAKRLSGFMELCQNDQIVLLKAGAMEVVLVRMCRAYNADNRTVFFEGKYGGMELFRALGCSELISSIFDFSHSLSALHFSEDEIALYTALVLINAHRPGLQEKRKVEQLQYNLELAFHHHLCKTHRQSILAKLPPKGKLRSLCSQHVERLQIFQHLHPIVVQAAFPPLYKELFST
Method in brief: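 SF9 lysate containing His-RORγ-LBD, ~3 nM final; coactivator peptide biotin-SRC1 LXXLL, 200 nM final; ursolic acid 2 μM final; DMSO 1% final; Tris pH 7.0 buffer with KCl, EDTA, DTT, BSA. TR-FRET format.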

Gal4-RORγ-LBD = target: T2, Gal4-RORγ-LBD (Homo sapiens, UniProt P51449); assay: Gal4-RORγ Luciferase Reporter Assay in HEK-293T Cells; assay type: cell-based; details: HEK-293 cells
T2 construct: expressed in transfected cells; host or cells: HEK-293 cells (pcDNA3.1neo plasmid)
T2 sequence (P51449 269-508 limits assumed): T1 sequence (P51449 269-508 limits assumed)
Method in brief: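 In transfected HEK-293 cells (Gal4-RORγ-LBD, Gal4-luciferase), test agents with 2 μM ursolic acid were incubated overnight at 37 °C before luminescent detection. Values are relative to the ursolic-acid-free, compound-free signal (100).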

[1] = luciferase reporter, with 2 μM ursolic acid

| EC50 (RORγ-LBD) [nM] | EC50 (Gal4-RORγ-LBD; 2 μM ursolic acid) [nM] | EC50 (Gal4-RORγ-LBD; [1]) [nM] | SMILES | TR-FRET Assay Max Response (RORγ-LBD) | Gal4-RORγ Assay Max Response (Gal4-RORγ-LBD; 2 μM ursolic acid) | Gal4-RORγ Assay Max Response (Gal4-RORγ-LBD; [1]) |
| --- | --- | --- | --- | --- | --- | --- |
| < 500 |  | < 500 | O=c1[nH]c(OCCC[C@H]2CN(S(=O)(=O)c3cccc(C(F)(F)F)c3)c3cc(-c4cccc(C(F)(F)F)n4)ccc3O2)no1 [Compound 36C, (S)-3-(3-(4-((3-(trifluoro-methyl)phenyl)sulfonyl)-6-(6-(trifluoromethyl)-pyridin-2-yl)-3,4-dihydro-2H-benzo[b][1,4]oxazin-2-yl)propoxy)-1,2,4-oxadiazol-5(4H)-one] | **** (The symbol “****” indicates a value greater than 200) |  | ** (The symbol “**” indicates a value in the range of greater than 90 to 150) |
| < 500 |  | < 500 | O=C(O)CC[C@H]1CN(S(=O)(=O)c2cccc(C(F)(F)F)c2)c2cc(-c3cccc(Cl)c3Cl)ccc2O1 [Compound 2AL, (S)-3-(6-(2,3-dichlorophenyl)-4-((3-(trifluoromethyl)phenyl)-sulfonyl)-3,4-dihydro-2H-benzo[b][1,4]oxazin-2-yl)propanoic acid] | **** (The symbol “****” indicates a value greater than 200) |  | *** (The symbol “***” indicates a value in the range of greater than 150 to 200) |
| < 500 | < 500 |  | COc1cc(S(=O)(=O)N2C[C@H](CCC(C)(C)C(=O)O)Oc3ccc(-c4cc(F)cc(OC)c4F)cc32)ccc1F [Compound 32S, (S)-4-(6-(2,5-difluoro-3-methoxyphenyl)-4-((4-fluoro-3-methoxyphenyl)sulfonyl)-3,4-dihydro-2H-benzo[b][1,4]oxazin-2-yl)-2,2-dimethylbutanoic acid] | *** (The symbol “***” indicates a value in the range of greater than 150 to 200) | ** (The symbol “**” indicates a value in the range of greater than 90 to 150) |  |
| < 500 | < 500 |  | O=C(O)CC[C@H]1CN(S(=O)(=O)c2cccc(C(F)(F)F)c2)c2cc(-c3cc(F)cc(F)c3Cl)cc(F)c2O1 [Compound 22H, (S)-3-(6-(2-chloro-3,5-difluoro-phenyl)-8-fluoro-4-((3-(trifluoro-methyl)phenyl)sulfonyl)-3,4-dihydro-2H-benzo[b][1,4]oxazin-2-yl)propanoic acid] | *** (The symbol “***” indicates a value in the range of greater than 150 to 200) | ** (The symbol “**” indicates a value in the range of greater than 90 to 150) |  |
| < 500 |  | < 500 | O=C(O)CC[C@H]1CN(S(=O)(=O)c2cccc(C(F)(F)F)c2)c2cc(-c3cccc(F)c3F)cc(F)c2O1 [Compound 22E, (S)-3-(6-(2,3-difluorophenyl)-8-fluoro-4-((3-(trifluoromethyl)phenyl)sulfonyl)-3,4-dihydro-2H-benzo[b][1,4]-oxazin-2-yl)propanoic acid] | **** (The symbol “****” indicates a value greater than 200) |  | ** (The symbol “**” indicates a value in the range of greater than 90 to 150) |

Continued, compound first:

| SMILES | EC50 (RORγ-LBD) [nM] | EC50 (Gal4-RORγ-LBD; 2 μM ursolic acid) [nM] | EC50 (Gal4-RORγ-LBD; [1]) [nM] | TR-FRET Assay Max Response (RORγ-LBD) | Gal4-RORγ Assay Max Response (Gal4-RORγ-LBD; 2 μM ursolic acid) | Gal4-RORγ Assay Max Response (Gal4-RORγ-LBD; [1]) |
| --- | --- | --- | --- | --- | --- | --- |
| O=C(NC[C@H]1CN(S(=O)(=O)c2cccc(C(F)(F)F)c2)c2cc(-c3cc(F)cc(OC(F)F)c3)ccc2O1)C1(F)CC1 [Compound 30DJ, (S)-N-((6-(3-(difluoromethoxy)-5-fluorophenyl)-4-((3-(trifluoro-methyl)phenyl)sulfonyl)-3,4-dihydro-2H-benzo[b][1,4]-oxazin-2-yl)methyl)-1-fluorocyclopropane-1-carboxamide] | < 500 | 500 to 5000 |  | *** (The symbol “***” indicates a value in the range of greater than 150 to 200) | * (The symbol “*” indicates a value in the range of 25 to 90) |  |
| COc1ccc(Cl)cc1-c1ccc2c(c1)N(S(=O)(=O)c1cccc(C(F)(F)F)c1)C[C@H](CCC(=O)O)O2 [Compound 2S, (S)-3-(6-(5-chloro-2-methoxyphenyl)-4-((3-(trifluoromethyl)phenyl)-sulfonyl)-3,4-dihydro-2H-benzo[b][1,4]oxazin-2-yl)propanoic acid] | < 500 |  | < 500 | **** (The symbol “****” indicates a value greater than 200) |  | ** (The symbol “**” indicates a value in the range of greater than 90 to 150) |
| COc1cc(-c2ccc3c(c2)N(S(=O)(=O)c2cccc(C(F)(F)F)c2)C[C@H](CCC(=O)O)O3)nc(N(C)C)c1 [Compound 4AP, (S)-3-(6-(6-(dimethylamino)-4-methoxypyridin-2-yl)-4-((3-(trifluoromethyl)phenyl)sul-fonyl)-3,4-dihydro-2H-benzo[b][1,4]oxazin-2-yl)propanoic acid] | < 500 |  | < 500 | **** (The symbol “****” indicates a value greater than 200) |  | ** (The symbol “**” indicates a value in the range of greater than 90 to 150) |
| O=C(O)CC[C@H]1CN(S(=O)(=O)c2cccc(C(F)(F)F)c2)c2cc(-c3cc(F)cc(F)c3F)ccc2O1 [Compound 4AK, (S)-3-(4-((3-(trifluoromethyl)-phenyl)sulfonyl)-6-(2,3,5-trifluorophenyl)-3,4-dihydro-2H-benzo[b][1,4]oxazin-2-yl)propanoic acid] | < 500 |  | < 500 | **** (The symbol “****” indicates a value greater than 200) |  | ** (The symbol “**” indicates a value in the range of greater than 90 to 150) |
| Cn1cc(-c2ccc3c(c2)N(S(=O)(=O)c2cccc(C(F)(F)F)c2)C[C@H](CCC(=O)O)O3)cn1 [Compound 2AQ, (S)-3-(6-(1-methyl-1H-pyrazol-4-yl)-4-((3-(trifluoromethyl)-phenyl)sulfonyl)-3,4-dihydro-2H-benzo[b][1,4]oxazin-2-yl)propanoic acid] | 500 to 5000 |  | 500 to 5000 | **** (The symbol “****” indicates a value greater than 200) |  | * (The symbol “*” indicates a value in the range of 25 to 90) |
| CN(C)c1cccc(-c2ccc3c(c2)N(S(=O)(=O)c2cccc(C(F)(F)F)c2)C[C@H](CCCOc2noc(=O)[nH]2)O3)n1 [Compound 35, (S)-3-(3-(6-(6-(dimethylamino)pyridin-2-yl)-4-((3-(trifluoromethyl)phenyl)sulfonyl)-3,4-dihydro-2H-benzo[b][1,4]oxazin-2-yl)propoxy)-1,2,4-oxadiazol-5(4H)-one] | < 500 |  | < 500 | **** (The symbol “****” indicates a value greater than 200) |  | ** (The symbol “**” indicates a value in the range of greater than 90 to 150) |
| O=c1[nH]nc(CC[C@H]2CN(S(=O)(=O)c3cccc(C(F)(F)F)c3)c3cc(-c4cccc(C(F)(F)F)n4)ccc3O2)o1 [Compound 28A, (S)-5-(2-(4-((3-(trifluoromethyl)-phenyl)sulfonyl)-6-(6-(trifluoromethyl)pyridin-2-yl)-3,4-dihydro-2H-benzo[b][1,4]oxazin-2-yl)ethyl)-1,3,4-oxadiazol-2(3H)-one] | < 500 |  | < 500 | **** (The symbol “****” indicates a value greater than 200) |  | ** (The symbol “**” indicates a value in the range of greater than 90 to 150) |
